Measurements reported in patent publication US12673945B2, “3-((8-((1H-pyrazol-4-yl)amino)imidazo[1,2-a]pyridin-3-yl)ethinyl)-n-phenylbenzamide derivative, method for preparing same, and pharmaceutical composition containing same as active ingredient for prevention or treatment of cancer” (DAEGU-GYEONGBUK MEDICAL INNOVATION FOUNDATION, priority 2020, dated 2026).

Key:
CDC2L5 = target: T1, CDC2L5 (Homo sapiens, UniProt Q14004); experiment: scanMAX Kinase panel (DiscoverX); assay type: binding
T1 construct: purchased DiscoverX scanMAX Kinase panel
Procedure: Among the example compounds of the present invention, the enzyme (kinase) selectivity of the selected compounds of Examples 1 and 4 was measured by requesting DiscoverX. At this time, the experiment was performed using a panel for scanMAX™ Kinase. The concentration of the drug treated to the enzyme was 1 μM in DMSO, and the percentage control (% control) was determined by the method shown in Equation 1 below. (Example Compound−Positive Control)/(Negative Control−Positive control)×100 [Equation 1]
In addition, if the enzyme selectivity of the compound of the present invention was less than the percentage control of 35% (<35%) for each enzyme, it was judged to have activity for the enzyme.

Parental (Ba/F3) = experiment: Ba/F3 cell proliferation inhibition; assay type: cell-based; conditions: BaF3; 72 hours, Cell Counting Kit-8
Summary of the method: (§1)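 Parental and T315I-Bcr-Abl Ba/F3 cells, 1×10^4 per well, exposed 72 h at 37 °C to nine 3-fold dilutions, final 0 to 10 μM. Viability by CCK-8 after 2 h, absorbance 450 nm; GI50 fitted from percent of vehicle-treated cells.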

T315I-Bcr-Abl (Ba/F3) = experiment: Ba/F3 cell proliferation inhibition; assay type: cell-based; conditions: BaF3; 72 hours, Cell Counting Kit-8
Summary of the method: as §1

[1] = oral pharmacokinetic test; assay type: in vivo, SD rats; conditions: SD, plasma; rat, 10 mg/Kg PO, vehicle A (NMP:PEG400=5:95)
Procedure: To evaluate the pharmacokinetic properties in vivo, oral pharmacokinetic test was performed with the compounds of Comparative Examples 1 and 4 and Examples 1 and 4 using mice and rats, and the PK parameters are shown in Table 10.
ICR mice (6-7 weeks old) and SD rats (6-7 weeks old) were used for the test. The fasted group was fasted about 16 hours before oral administration, and the fed group was fasted about 4 hours before oral administration. The test drug for oral administration was used by dissolving the drug in a vehicle at a concentration of 1 mg/mL for use, and blood samples were collected (time point: 0.25, 0.5, 1, 2, 4, 8, 12, 24, 32, n=3) from the heart (mouse, 500 μL/time point) or jugular vein (rat, 120 μL/time point). Blood was centrifuged at 12,000 G at 4° C. for 2 minutes to separate plasma, and stored at −80° C. until analysis. • Vehicle A (NMP:PEG400=5:95) • Vehicle B (0.5% methyl cellulose) 6-2. Sampling and Pretreatment
To 20 μl of plasma, 180 μl of acetonitrile (including internal standard) was added. The mixture was vortexed and centrifuged for 5 minutes at 15,000 rpm at 4° C. The supernatant obtained after centrifugation was analyzed by LC-MS/MS.
PK parameters were calculated with a non-compartmental analysis model using Phoenix WinNonlin 6.4 version (Pharsight, USA) program.

[2] = tested on: Luc_Ba/F3 T315I-Bcr-Abl cell line; experiment: in vivo pharmacological activity, blood cancer mouse model; design: species or system nude mice; conditions: for day after the administration on which all subjects died (FIG. 3): vehicle group: day 21
Procedure: After the mice were adapted to an animal facility for 1 week, the Luc_Ba/F3 T315I-Bcr-Abl cell line emitting luciferase was transplanted into the caudal vein at the density of 5×10^6/animal. Group separation was performed 3 days after the cell line transplantation. On the day of the group separation, 10 mice were randomly assigned to each group of 5 groups so that the luminescence values were equal after luminescence measurement using IVIS spectrum-CT optical imaging equipment.
In addition, the body weight and survival rate of each experimental group were monitored.
Statistical analysis was performed using GraphPad Prism 8, and the statistical significance of the survival rate was confirmed using unpaired t test and log-rank (Mantel-Cox) test.

T1 sequence (Q14004 whole entry): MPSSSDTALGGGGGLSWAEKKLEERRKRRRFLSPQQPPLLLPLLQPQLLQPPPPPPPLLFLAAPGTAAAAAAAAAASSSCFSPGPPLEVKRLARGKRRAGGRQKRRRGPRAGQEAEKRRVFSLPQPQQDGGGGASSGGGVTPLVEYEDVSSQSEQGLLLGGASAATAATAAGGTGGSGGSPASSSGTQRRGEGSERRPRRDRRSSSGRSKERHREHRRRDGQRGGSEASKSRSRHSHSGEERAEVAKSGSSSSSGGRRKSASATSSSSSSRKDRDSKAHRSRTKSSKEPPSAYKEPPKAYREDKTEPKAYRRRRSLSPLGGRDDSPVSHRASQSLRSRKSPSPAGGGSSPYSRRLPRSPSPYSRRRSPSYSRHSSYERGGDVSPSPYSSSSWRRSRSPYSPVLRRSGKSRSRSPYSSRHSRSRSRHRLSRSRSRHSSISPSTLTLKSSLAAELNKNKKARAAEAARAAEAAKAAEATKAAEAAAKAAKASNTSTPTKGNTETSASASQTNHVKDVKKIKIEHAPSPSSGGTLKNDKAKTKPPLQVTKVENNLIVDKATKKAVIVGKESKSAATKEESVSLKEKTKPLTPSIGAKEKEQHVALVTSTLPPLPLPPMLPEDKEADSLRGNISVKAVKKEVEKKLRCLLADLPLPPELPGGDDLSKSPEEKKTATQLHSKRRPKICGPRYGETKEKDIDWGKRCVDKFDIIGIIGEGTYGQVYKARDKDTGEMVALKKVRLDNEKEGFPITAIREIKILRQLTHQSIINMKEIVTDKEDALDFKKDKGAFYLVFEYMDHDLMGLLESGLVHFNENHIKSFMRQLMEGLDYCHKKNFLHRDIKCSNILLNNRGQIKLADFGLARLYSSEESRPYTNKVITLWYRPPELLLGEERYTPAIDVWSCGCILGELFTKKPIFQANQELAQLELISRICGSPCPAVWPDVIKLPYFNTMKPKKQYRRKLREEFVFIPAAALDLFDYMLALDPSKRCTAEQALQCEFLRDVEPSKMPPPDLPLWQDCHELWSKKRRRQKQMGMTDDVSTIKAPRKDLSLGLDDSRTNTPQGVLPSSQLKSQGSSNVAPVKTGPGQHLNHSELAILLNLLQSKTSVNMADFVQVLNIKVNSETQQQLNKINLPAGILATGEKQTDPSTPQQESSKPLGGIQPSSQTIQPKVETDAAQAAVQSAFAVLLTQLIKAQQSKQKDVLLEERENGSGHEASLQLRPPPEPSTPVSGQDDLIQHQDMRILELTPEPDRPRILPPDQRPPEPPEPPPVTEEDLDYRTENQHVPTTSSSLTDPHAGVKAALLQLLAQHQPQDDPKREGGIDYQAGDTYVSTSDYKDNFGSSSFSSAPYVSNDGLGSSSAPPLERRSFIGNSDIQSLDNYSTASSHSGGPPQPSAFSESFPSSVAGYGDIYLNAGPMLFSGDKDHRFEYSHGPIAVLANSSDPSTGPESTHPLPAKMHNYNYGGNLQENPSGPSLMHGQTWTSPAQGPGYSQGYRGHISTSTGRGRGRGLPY

| SMILES | % Cont @ 1 uM (CDC2L5) [%] | GI50 (Parental (Ba/F3)) [nM] | GI50 (T315I-Bcr-Abl (Ba/F3)) [nM] | AUC(0-t) [1] [ng·h/mL] | Cmax [1] [ng/mL] | half-life [1] [h] | day after the administration on which all subjects died (FIG. 3) ([2]; 25 mg/kg oral once a day for 10 days) [days] | day after the administration on which all subjects died (FIG. 3) ([2]; 50 mg/kg oral once a day for 10 days) [days] | day after the administration on which all subjects died (FIG. 3) ([2]; 100 mg/kg oral once a day for 10 days) [days] | dose dependence of luminescence signal (FIG. 2) ([2]; 25, 50, 100 mg/kg oral once a day for 10 days) | luminescence values in optical images compared to the vehicle group (FIG. 1) ([2]; all treated groups, oral once a day for 10 days, images days 0, 4, 11, 18) | luminescence signals emitted from blood cancer cells compared to the vehicle group (FIG. 2) ([2]; day 18 after administration, 25, 50, 100 mg/kg oral) |
| --- | --- | --- | --- | --- | --- | --- | --- | --- | --- | --- | --- | --- |
| Cc1cn(-c2cc(NC(=O)c3cc(C#Cc4cnc5c(Nc6cnn(C)c6)cccn45)c(C)cc3F)cc(C(C)(C)C#N)c2)cn1 [Example 1, N-(3-(2-cyanopropane-2-yl)-5-(4-methyl-1H-imidazol-1-yl)phenyl)-2-fluoro-4-methyl-5-((8-((1-methyl-1H-pyrazol-4-yl)amino)imidazo[1,2-a]pyridin-3-yl)ethynyl)benzamide] | 21 | > 5000 | < 50 | 15900 | 2000 | 3.3 | 31 | 32 | 35 | decreased dose-dependently | weak luminescence values | weak luminescence signals |
| Cc1cn(-c2cc(NC(=O)c3cc(C#Cc4cnc5c(Nc6cnn(C)c6)cccn45)c(C)cc3F)cc(C(F)(F)F)c2)cn1 [Example 4, 2-fluoro-4-methyl-N-(3-(4-methyl-1H-imidazol-1-yl)-5-(trifluoromethyl)phenyl)-5-((8-((1-methyl-1H-pyrazol-4-yl)amino)imidazo[1,2-a]pyridin-3-yl)ethynyl)benzamide] | 60 | > 5000 | < 50 |  |  |  |  |  |  |  |  |  |
